Key:
Assay type in all cases: cell-based
S. aureus IVES 2943 = experiment: MIC, agar dilution; conditions: S. aureus IVES 2943
E. coli J3272 Tet D = experiment: microbe, parasite or virus in culture; conditions: E. coli J3272 Tet D
Enterococcus 12201 = experiment: MIC, agar dilution; conditions: Enterococcus 12201
E. coli ATCC 25922 = experiment: MIC, agar dilution; conditions: E. coli ATCC 25922
E. coli J2175 = experiment: MIC, agar dilution; conditions: E. coli J2175
E. coli J3272 Tet C = experiment: microbe, parasite or virus in culture; conditions: E. coli J3272 Tet C
E. coli UBMS 90-5 = experiment: MIC, agar dilution
E. coli #311 (MP) = experiment: MIC, agar dilution; conditions: E. coli #311 (MP)
[1] = test system: Ps. acruginosa ATCC 27853; experiment: MIC, agar dilution; conditions: Ps. acruginosa ATCC 27853
E. coli UBMS 88-1 Tet B = experiment: microbe, parasite or virus in culture; conditions: E. coli UBMS 88-1 Tet B; 18 hours at 35° C.
[2] = test system: E. coli MC 4100 Tet sens.; experiment: MIC, agar dilution
S. aureus ATCC 29213 = experiment: MIC, agar dilution; conditions: S. aureus ATCC 29213
S. aureus IVES 1 983 = experiment: MIC, agar dilution; conditions: S. aureus IVES 1 983
S. mariescens FPOR 8733 = experiment: MIC, agar dilution
E. coli UBMS 90-4 Tet M = experiment: microbe, parasite or virus in culture; conditions: E. coli UBMS 90-4 Tet M
E. coli PRP1 Tet A = experiment: microbe, parasite or virus in culture; conditions: E. coli PRP1 Tet A
E. coli UBMS 89-1 Tet M = experiment: microbe, parasite or virus in culture; conditions: E. coli UBMS 89-1 Tet M
S. aureus SMITH (MP) = experiment: MIC, agar dilution; conditions: S. aureus SMITH (MP)
E. faecalis ATCC 29212 = experiment: MIC, agar dilution; conditions: E. faecalis ATCC 29212
[3] = test system: S. aureus UBMS 90-1 Tet M; experiment: microbe, parasite or virus in culture; conditions: S. aureus UBMS 90-1 Tet M
S. aureus ROSE (MP) = experiment: MIC, agar dilution; conditions: S. aureus ROSE (MP)
[4] = test system: S. aureus UBMS 88-5 Tet M; experiment: microbe, parasite or virus in culture; conditions: S. aureus UBMS 88-5 Tet M
[5] = test system: S. aureus UBMS 88-7 Tet K; experiment: microbe, parasite or virus in culture; conditions: S. aureus UBMS 88-7 Tet K
E. coli BAJ9003 IMP MUT = experiment: microbe, parasite or virus in culture; conditions: E. coli BAJ9003 IMP MUT
[6] = test system: E. coli UBMS 89-2 Tet sens.; experiment: MIC, agar dilution; conditions: E. coli UBMS 89-2 Tet sens.
S. aureus UBMS 90-3 = experiment: MIC, agar dilution; conditions: S. aureus UBMS 90-3
S. aureus UBMS 88-4 = experiment: MIC, agar dilution; conditions: S. aureus UBMS 88-4
[7] = test system: S. aureus UBMS 90-2 Tet M; experiment: microbe, parasite or virus in culture; conditions: S. aureus UBMS 90-2 Tet M
[8] = test system: S. hemolyticus AVHAH 88-3; experiment: MIC, agar dilution; conditions: S. hemolyticus AVHAH 88-3
S. aureus NEMC 8769 = experiment: MIC, agar dilution; conditions: S. aureus NEMC 8769
E. coli J3272 Tet sens. = experiment: MIC, agar dilution
[9] = test system: E. coli MC 4100 TNIOC Tet B; experiment: microbe, parasite or virus in culture; conditions: E. coli MC 4100 TNIOC Tet B
[10] = test system: tetracycline sensitive and resistant Gram-positive and Gram-negative bacteria; experiment: In vitro antibacterial activity, summary in words of Table I

Molecule: 717S-(7alpha,10aalpha)]-N-[9-(Aminocarbonyl)4,7-bis(dimethylamino)-5,5a,6,6a,7,10,10a,12-octahydro-1,8,10a,11-tetrahydroxy-10,12-dioxo-2-naphthacenyl]-4-methyl-l-piperazineacetamide dihydrochloride
- MIC (S. aureus IVES 2943): > 32 µg/mL
- MIC (E. coli J3272 Tet D): 4 µg/mL
- MIC (Enterococcus 12201): 2 µg/mL
- MIC (E. coli ATCC 25922): 8 µg/mL
- MIC (E. coli J2175): 8 µg/mL
- MIC (E. coli J3272 Tet C): 8 µg/mL
- MIC (E. coli UBMS 90-5): 8 µg/mL
- MIC (E. coli #311 (MP)): 8 µg/mL
- MIC [1]: > 32 µg/mL
- MIC (E. coli UBMS 88-1 Tet B): 8 µg/mL
- MIC [2]: 1 µg/mL
- MIC (S. aureus ATCC 29213): 2 µg/mL
- MIC (S. aureus IVES 1 983): > 32 µg/mL
- MIC (S. mariescens FPOR 8733): > 32 µg/mL
- MIC (E. coli UBMS 90-4 Tet M): 8 µg/mL
- MIC (E. coli PRP1 Tet A): 16 µg/mL
- MIC (E. coli UBMS 89-1 Tet M): 8 µg/mL
- MIC (S. aureus SMITH (MP)): 0.5 µg/mL
- MIC (E. faecalis ATCC 29212): 1 µg/mL
- MIC [3]: 8 µg/mL
- MIC (S. aureus ROSE (MP)): > 32 µg/mL
- MIC [4]: 4 µg/mL
- MIC [5]: 16 µg/mL
- MIC (E. coli BAJ9003 IMP MUT): 0.5 µg/mL
- MIC [6]: 8 µg/mL
- MIC (S. aureus UBMS 90-3): 2 µg/mL
- MIC (S. aureus UBMS 88-4): 2 µg/mL
- MIC [7]: 2 µg/mL
- MIC [8]: 16 µg/mL

Molecule: CN(C)c1cc(NC(=O)C2CCCN2C(=O)C(F)(F)F)c(O)c2c1CC1CC3[C@H](N(C)C)C(O)=C(C(N)=O)C(=O)[C@@]3(O)C(O)=C1C2=O.Cl.Cl (stereo partly drawn) [A, [7S-(7alpha,10aalpha)]-N-[9-(Aminocarbonyl)4,7-bis(dimethylamino)-5,5a,6,6a,7,10,10a, 12-octahydro-l,8,10a,ll-tetrahydroxy-10,12-dioxo-2-naphthacenyl]-l-(trifluoroacetyl)-2-pyrrolidinecarboxamide dihydrochloride]
- MIC (S. aureus IVES 2943): 16 µg/mL
- MIC (E. coli J3272 Tet D): 2 µg/mL
- MIC (E. coli ATCC 25922): 8 µg/mL
- MIC (E. coli J2175): 8 µg/mL
- MIC (S. aureus NEMC 8769): 1 µg/mL
- MIC (E. coli J3272 Tet C): 8 µg/mL
- MIC (E. coli UBMS 90-5): 4 µg/mL
- MIC (E. coli #311 (MP)): 8 µg/mL
- MIC [1]: > 32 µg/mL
- MIC (E. coli UBMS 88-1 Tet B): 8 µg/mL
- MIC (S. aureus ATCC 29213): 4 µg/mL
- MIC (S. aureus IVES 1 983): 16 µg/mL
- MIC (S. mariescens FPOR 8733): > 32 µg/mL
- MIC (E. coli J3272 Tet sens.): 8 µg/mL
- MIC (E. coli PRP1 Tet A): > 32 µg/mL
- MIC (E. coli UBMS 89-1 Tet M): 8 µg/mL
- MIC [9]: 8 µg/mL
- MIC (S. aureus SMITH (MP)): 2 µg/mL
- MIC (E. faecalis ATCC 29212): 2 µg/mL
- MIC [3]: 8 µg/mL
- MIC (S. aureus ROSE (MP)): 32 µg/mL
- MIC [4]: 4 µg/mL
- MIC [5]: 16 µg/mL
- MIC (E. coli BAJ9003 IMP MUT): 1 µg/mL
- MIC [6]: 8 µg/mL
- MIC (S. aureus UBMS 90-3): 1 µg/mL
- MIC (S. aureus UBMS 88-4): 4 µg/mL
- MIC [7]: 2 µg/mL
- MIC [8]: 8 µg/mL

Molecule: CN(C)c1cc(NC(=O)CNCC2CC2)c(O)c2c1CC1CC3C(N(C)C)C(O)=C(C(N)=O)C(=O)C3(O)C(O)=C1C2=O.Cl.Cl (stereo not shown) [K]
- MIC (S. aureus IVES 2943): 8 µg/mL
- MIC (E. coli J3272 Tet D): 0.25 µg/mL
- activity against E. coli tetA, E. coli tetC and E. coli tetD [10]: good activity
- in vitro activity against tetracycline resistant strains containing tetM and tetB resistance determinants ([10]; S. aureus UBMS 88-5, 90-1, 90-2, E. coli UBMS 89-1, 90-4, 88-1, TN10C tetB): excellent
- activity against recently isolated bacteria from clinical sources compared with minocycline ([10]; clinical isolates): superior to that of minocycline
- activity against susceptible strains compared with minocycline ([10]; susceptible strains): equallyas effective as minocycline
- MIC (S. aureus NEMC 8769): 1 µg/mL
- MIC [1]: 16 µg/mL
- MIC (E. coli UBMS 88-1 Tet B): 0.5 µg/mL
- MIC [2]: 0.12 µg/mL
- MIC (S. aureus ATCC 29213): 1 µg/mL
- MIC (S. aureus IVES 1 983): 8 µg/mL
- MIC (S. mariescens FPOR 8733): 8 µg/mL
- MIC (E. coli PRP1 Tet A): 4 µg/mL
- MIC (E. coli UBMS 89-1 Tet M): 0.5 µg/mL
- MIC (S. aureus SMITH (MP)): 0.5 µg/mL
- MIC [3]: 1 µg/mL
- MIC [4]: 1 µg/mL
- MIC [5]: 4 µg/mL
- MIC (E. coli BAJ9003 IMP MUT): 0.12 µg/mL
- MIC [6]: 0.5 µg/mL
- MIC (S. aureus UBMS 90-3): 0.5 µg/mL
- MIC (S. aureus UBMS 88-4): 0.5 µg/mL
- MIC [7]: 0.5 µg/mL

Reference: US5328902A, “7-(substituted)-9-[(substituted glycyl)amido]-6-demethyl-6-deoxytetracyclines” (American Cyanamid Co., priority 1992, dated 1994)
